# Entries after “also recorded” stand apart in the source; their conditions may differ. Read-outs that look alike come from different tables or passages of the source.
# What was measured:
# [1] = system: HIV-1 in U1 cells (TNF-α mediated expression); assay: TNF-α-mediated HIV-1 p24 antigen expression in chronically infected U1 cells; format: cell-based, HIV-1; human cells; settings: for suppression of TNFα-mediated HIV-1 expression (p24): in words
# Method: (§1) Another assay examined the effect of compounds on chronically HIV-1 infected U1 cells. A relatively high density of U1 cells at 10^4 cells/well were incubated in the absence or presence of compounds for 4 days. HIV-1 p24 antigen expression in the culture media was measured by using a ELISA kit (Abbott). Alternatively, U1 cells were plated at a relatively low density of 2×10^3 cell/well plus or minus TNF at 20 pg/ml and plus or minus compounds. The expression of HIV-1 p24 antigen in culture media was measured by ELISA four days later.
# (§2) Stable cell lines 293tar, 293tat and 293tat2 were generated by transfections using conditions described in (Tate et al., FASEB J. 4:227-231, 1990) with the plasmid pHIV.AP alone or along with either pHIV.tat or pSV2tat72, respectively. The assay of HIV-1 p24 antigen expression in the chronically HIV-1-infected promonocytic line U1 after 4 days and in acutely infected peripheral blood lymphocytes (PBL) after 7 days were described (Peterson et al., J. Clin. Invest. 89:574-580, 1992, and Brighty et al., Proc Natl. Acad. Sci. USA 88:7802-7805, 1991).
# (§3) This example illustrates that CT2576 inhibited both constitutive and cytokine-induced HIV expression in a chronically-infected U1 cell line. A chronically HIV-1 infected human promonocyte cell line, U1 (Poli et al., J. Exp. Med. 172:151-158, 1990), was used as a model to see if the inhibitory effect of CT2576 on HIV-LTR driven reporter gene expression could be extended to block HIV replication per se in infected cells. TNF-α and IL-6 have been reported to upregulate the expression of HIV-1 in U1 cells (Poli et al., Proc Natl. Acad. Sci. USA 91:108-112, 1994). U1 cells were plated onto 24-well microtiter plates to study the dose-response effect of CT2576 on the constitutive (10^4 cells/well), TNF-α or IL-6 mediated (2×10^3 cells/well) expression of HIV-1. CT2576 was capable of inhibiting the constitutive, the TNF-α mediated, as well as the IL-6 mediated expression of HIV in U1 cells with an IC50 value of less than 1 μM (FIG. 17).
# 293-EBNA cells = assay: Viability of 293-EBNA cells, Alamar Blue; format: cell-based, human
# Summary of the method: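 Viability read with Alamar Blue, a vital dye reduced by mitochondrial dehydrogenases to a soluble product. Signal quantified as the absorbance difference between A570 and A600.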
# [2] = system: HIV-1 in U1 cells (constitutive expression); assay: Constitutive HIV-1 p24 antigen expression in chronically infected U1 cells; format: cell-based, HIV-1; human cells; settings: for suppression of constitutive HIV-1 expression (p24): U1 cells plated at high density, in words
# Method: as §1, §2, §3
# U1 cells = assay: Cytotoxicity in U1 cells; format: cell-based, human
# Description: We studied the effect of CT-2576 on HIV expression in a chronically HIV-1 infected promonocytic U1 cell line (Folks et al., Science 238:800-802, 1987). […] TNF-α and other cytokines can induce HIV expression in U1 cells. U1 cells also express HIV constitutively when grown to a relatively high density. […] An inhibitor of viral reverse transcriptase is expected to only protect new cells from becoming infected but not to affect viral production from cells already infected with HIV. […] While TNF-α induces HIV expression through activation of NFκB, IL-6 and IL-1 also stimulates HIV expression through other pathways independent of NFκB activation in U1 cells.
SMILES,suppression of TNFα-mediated HIV-1 expression (p24) ([1]; U1 cells),cytotoxic effect on 293-EBNA cells (Alamar Blue) (293-EBNA cells),suppression of constitutive HIV-1 expression (p24) [2],"cytotoxicity in U1 cells at 25 μM (U1 cells; 25 μM, FIG. 12 bottom panel, TNFα)","IC50 ([1]; Human immunodeficiency virus 1, 96 h, read-out: IC50, TNF-α mediated HIV expression, U1 cells, 4 days)","IC50 ([1]; U1 cells, 4 days, read-out: IC50, TNF-α mediated HIV expression)","toxic concentration (not toxic at concentrations up to), 293-EBNA cells (293-EBNA cells)","IC50 ([2]; Human immunodeficiency virus 1, 96 h, read-out: IC50, constitutive HIV expression, U1 cells, 4 days)","IC50 ([2]; read-out: IC50, constitutive HIV expression, U1 cells, 4 days)","cytotoxicity in U1 cells, trypan-blue dye exclusion (U1 cells; trypan-blue dye exclusion assay)"
"CCCCCCCCNCC(O)CCCCCCCCCN1C(=O)CCN(C)C1=O (stereo not drawn) [CT1829, 3-(11-octylamino-10-hydroxyundecyl)-1-methyldihydrouracil]",suppressed HIV-1 expression,no significant cytotoxic effect,suppressed constitutive HIV-1 expression,some cytotoxicity,–,–,–,–,–,–
"CCCCCCCCNCC(O)CCCCCCCCCn1c(=O)c2c(ncn2C)n(C)c1=O (stereo not drawn) [CT2576, 1-(11-octylamino-10-hydroxyundecyl)-3,7-dimethylxanthine]",suppressed HIV-1 expression; also recorded: the most effective; also recorded: inhibited,–,the most effective; also recorded: inhibited; also recorded: suppressed constitutive HIV-1 expression,–,~1000 nM,< 1000 nM,> 35 µM,~1000 nM,< 1000 nM,no cytotoxicity

# From patent US5985926A, “Method for inhibiting intracellular viral replication” (Cell Therapeutics, Inc., priority 1997, dated 1999)
